The source of these data is patent US20230123334A1, “AMINO LIPID COMPOUND, PREPARATION METHOD THEREFOR, AND APPLICATION THEREOF” (SHENZHEN SHENXIN BIOTECHNOLOGY CO., LTD., priority 2020, published 2023).

The structures appear in SMILES notation.

In assay [1] the test system is HEK293 cells. As to the kind of experiment: Preliminary screening as mRNA vectors, EGFP mRNA transfection of HEK293 cells. Particulars: HEK293 cells, 96-well plates, EGFP mRNA 50 ng per well; percentage of GFP fluorescent cells relative to total number of cells (Hoechst). It is filed as cell-based. The gist of the method: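 Each well of HEK293 cells received 50 ng of EGFP mRNA. Efficiency was expressed as percent GFP-expressing cells over Hoechst-defined total cell number.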

Assay [2] has as its system HEK293 cells. Description: Preliminary screening as DNA vectors, GFP transfection of HEK293 cells. It is filed as cell-based. To be noted: HEK293 cells; lipid/DOPE liposome with 75 ng plasmid DNA (psin-EGFP-IRES-Puro); number of cells expressing GFP divided by total number of nuclei (Hoechst). The gist of the method:
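Lipid + DOPE liposomes (NaOAc, pH 5.6) complexed w/ 75 ng psin-EGFP-IRES-Puro, 30 min RT; added to 3-5×10^4 HEK293/well, 37° C. Hoechst 0.2 μg/mL at 20-24 h, imaged after further 20-24 h. Efficiency = GFP+ cells / total nuclei.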

On to `CCCCCCCNc1nc(NCCCCCCC)nc(NCCN(CC)CC)n1` [Compound N7N7D7], for which the “Absolute mRNA transfection efficiency in HEK293 cells” value (“Absolute mRNA transfection efficiency” below) in the assay with HEK293 cells [1] worked out at 0.0%. In addition, the “Absolute DNA transfection efficiency in HEK293 cells” value (from here on “Absolute DNA transfection efficiency”) in the assay on HEK293 cells [2] was found to be 0.0%.
As for `CCCCCCCNc1nc(NCCCCCCC)nc(NCCCN2CCOCC2)n1` [Compound N7N7D8], in the assay on HEK293 cells [1], the “Absolute mRNA transfection efficiency” value amounted to 0.0%. Besides, the “Absolute DNA transfection efficiency” value in the assay on HEK293 cells [2] was 0.0%.
Consider `CCCCCCCNc1nc(NCCCCCCC)nc(NCCCN2CCN(C)CC2)n1` [Compound N7N7D9], for which, in the assay with HEK293 cells [1], the “Absolute mRNA transfection efficiency” value was found to be 0.0%. The “Absolute DNA transfection efficiency” value in the assay on HEK293 cells [2] is given as 0.0%.
As for `CCCCCCCNc1nc(NCCCCCCC)nc(NCC2CCN(C)CC2)n1` [Compound N7N7D10], in the assay on HEK293 cells [1], the “Absolute mRNA transfection efficiency” value was found to be 0.0%. In the assay on HEK293 cells [2], the “Absolute DNA transfection efficiency” value was determined as 0.1%.
For `CCCCCCCCNc1nc(NCCCCCCC)nc(NCCN(C)C)n1` [Compound N7N8D1] the same measures were 0.0% and 0.2%.
For the compound `CCCCCCCCNc1nc(NCCCCCCC)nc(NCCN2CCOCC2)n1` [Compound N7N8D2], the “Absolute mRNA transfection efficiency” value in the assay on HEK293 cells [1] is given as 0.3%. For the same compound, the “Absolute DNA transfection efficiency” value with HEK293 cells [2] turned out to be 0.0%.
For `CCCCCCCCNc1nc(NCCCCCCC)nc(NCCN2CCCC2)n1` [Compound N7N8D3] the same measures were 3.7% and 0.5%.
For `CCCCCCCCNc1nc(NCCCCCCC)nc(NCCN2CCCCC2)n1` [Compound N7N8D4], in the assay with HEK293 cells [1], the “Absolute mRNA transfection efficiency” value is 0.0%. Also, the “Absolute DNA transfection efficiency” value in the assay on HEK293 cells [2] stood at 0.2%.
Regarding `CCCCCCCCNc1nc(NCCCCCCC)nc(NCCN2CCN(C)CC2)n1` [Compound N7N8D5], in the assay with HEK293 cells [1], the “Absolute mRNA transfection efficiency” value was found to be 0.0%. The “Absolute DNA transfection efficiency” value in the assay with HEK293 cells [2] came out at 0.0%.
In the case of `CCCCCCCCNc1nc(NCCCCCCC)nc(NCCCN(C)C)n1` [Compound N7N8D6], in the assay on HEK293 cells [1], the “Absolute mRNA transfection efficiency” value stood at 0.0%. For the same compound, in the assay with HEK293 cells [2], the “Absolute DNA transfection efficiency” value came out at 0.0%.
As for `CCCCCCCCNc1nc(NCCCCCCC)nc(NCCN(CC)CC)n1` [Compound N7N8D7], the “Absolute mRNA transfection efficiency” value in the assay on HEK293 cells [1] stood at 0.0%. For the same compound, the “Absolute DNA transfection efficiency” value with HEK293 cells [2] stood at 0.0%.
As for `CCCCCCCCNc1nc(NCCCCCCC)nc(NCCCN2CCOCC2)n1` [Compound N7N8D8], in the assay on HEK293 cells [1], the “Absolute mRNA transfection efficiency” value is given as 0.0%. Also, in the assay on HEK293 cells [2], the “Absolute DNA transfection efficiency” value was 0.0%.
In the case of `CCCCCCCCNc1nc(NCCCCCCC)nc(NCCCN2CCN(C)CC2)n1` [Compound N7N8D9], the “Absolute mRNA transfection efficiency” value in the assay with HEK293 cells [1] worked out at 0.2%. For the same compound, the “Absolute DNA transfection efficiency” value in the assay with HEK293 cells [2] turned out to be 0.7%.
For `CCCCCCCCNc1nc(NCCCCCCC)nc(NCC2CCN(C)CC2)n1` [Compound N7N8D10] the same measures were 0.6% and 0.0%.
For `CCCCCCCCCNc1nc(NCCCCCCC)nc(NCCN(C)C)n1` [Compound N7N9D1] the same measures were 0.0% and 0.6%.
In the case of `CCCCCCCCCNc1nc(NCCCCCCC)nc(NCCN2CCOCC2)n1` [Compound N7N9D2], in the assay with HEK293 cells [1], the “Absolute mRNA transfection efficiency” value was 0.0%. Moreover, in the assay with HEK293 cells [2], the “Absolute DNA transfection efficiency” value is on record as 0.0%.
As to `CCCCCCCCCNc1nc(NCCCCCCC)nc(NCCN2CCCC2)n1` [Compound N7N9D3], the “Absolute mRNA transfection efficiency” value in the assay with HEK293 cells [1] came to 0.1%. In addition, the “Absolute DNA transfection efficiency” value in the assay on HEK293 cells [2] is 0.0%.
For `CCCCCCCCCNc1nc(NCCCCCCC)nc(NCCN2CCCCC2)n1` [Compound N7N9D4] the same measures were 0.0% and 0.0%.
In the case of `CCCCCCCCCNc1nc(NCCCCCCC)nc(NCCN2CCN(C)CC2)n1` [Compound N7N9D5], the “Absolute mRNA transfection efficiency” value with HEK293 cells [1] is 0.2%. The “Absolute DNA transfection efficiency” value with HEK293 cells [2] amounted to 0.0%.
For `CCCCCCCCCNc1nc(NCCCCCCC)nc(NCCCN(C)C)n1` [Compound N7N9D6], in that order: 0.0% and 0.0%.
On to `CCCCCCCCCNc1nc(NCCCCCCC)nc(NCCN(CC)CC)n1` [Compound N7N9D7], for which the “Absolute mRNA transfection efficiency” value in the assay with HEK293 cells [1] came to 0.0%. In the assay on HEK293 cells [2], the “Absolute DNA transfection efficiency” value was determined as 0.0%.
Regarding `CCCCCCCCCNc1nc(NCCCCCCC)nc(NCCCN2CCOCC2)n1` [Compound N7N9D8], the “Absolute mRNA transfection efficiency” value in the assay on HEK293 cells [1] came out at 0.0%. For the same compound, the “Absolute DNA transfection efficiency” value with HEK293 cells [2] is given as 0.0%.
Regarding `CCCCCCCCCNc1nc(NCCCCCCC)nc(NCCCN2CCN(C)CC2)n1` [Compound N7N9D9], the “Absolute mRNA transfection efficiency” value in the assay with HEK293 cells [1] is 0.0%. Moreover, in the assay with HEK293 cells [2], the “Absolute DNA transfection efficiency” value was determined as 0.7%.
For `CCCCCCCCCNc1nc(NCCCCCCC)nc(NCC2CCN(C)CC2)n1` [Compound N7N9D10] the same measures were 0.1% and 0.4%.
For `CCCCCCCCCCCNc1nc(NCCCCCCC)nc(NCCN(C)C)n1` [Compound N7N11D1] the same measures were 0.0% and 1.3%.
Consider `CCCCCCCCCCCNc1nc(NCCCCCCC)nc(NCCN2CCOCC2)n1` [Compound N7N11D2], for which the “Absolute mRNA transfection efficiency” value in the assay on HEK293 cells [1] is 0.0%. Also, in the assay on HEK293 cells [2], the “Absolute DNA transfection efficiency” value is 0.1%.
Consider `CCCCCCCCCCCNc1nc(NCCCCCCC)nc(NCCN2CCCC2)n1` [Compound N7N11D3], for which the “Absolute mRNA transfection efficiency” value in the assay on HEK293 cells [1] was 1.3%. Further, in the assay with HEK293 cells [2], the “Absolute DNA transfection efficiency” value is recorded as 1.0%.
As to `CCCCCCCCCCCNc1nc(NCCCCCCC)nc(NCCN2CCCCC2)n1` [Compound N7N11D4], the “Absolute mRNA transfection efficiency” value with HEK293 cells [1] was found to be 0.1%. Besides, in the assay on HEK293 cells [2], the “Absolute DNA transfection efficiency” value is listed as 1.4%.
For `CCCCCCCCCCCNc1nc(NCCCCCCC)nc(NCCN2CCN(C)CC2)n1` [Compound N7N11D5], in that order: 0.1% and 0.6%.
As for `CCCCCCCCCCCNc1nc(NCCCCCCC)nc(NCCCN(C)C)n1` [Compound N7N11D6], in the assay on HEK293 cells [1], the “Absolute mRNA transfection efficiency” value worked out at 1.5%. Further, the “Absolute DNA transfection efficiency” value with HEK293 cells [2] turned out to be 1.1%.
For `CCCCCCCCCCCNc1nc(NCCCCCCC)nc(NCCN(CC)CC)n1` [Compound N7N11D7], in that order: 0.0% and 0.0%.
For `CCCCCCCCCCCNc1nc(NCCCCCCC)nc(NCCCN2CCOCC2)n1` [Compound N7N11D8], in that order: 0.0% and 0.0%.
For `CCCCCCCCCCCNc1nc(NCCCCCCC)nc(NCCCN2CCN(C)CC2)n1` [Compound N7N11D9], the “Absolute mRNA transfection efficiency” value with HEK293 cells [1] is reported as 0.0%. The “Absolute DNA transfection efficiency” value in the assay on HEK293 cells [2] is given as 0.1%.
For `CCCCCCCCCCCNc1nc(NCCCCCCC)nc(NCC2CCN(C)CC2)n1` [Compound N7N11D10], in that order: 0.2% and 0.7%.
In the case of `CCCCCCCCCCCCNc1nc(NCCCCCCC)nc(NCCN(C)C)n1` [Compound N7N12D1], the “Absolute mRNA transfection efficiency” value in the assay with HEK293 cells [1] came to 0.1%. Besides, the “Absolute DNA transfection efficiency” value in the assay on HEK293 cells [2] was found to be 0.2%.
In the case of `CCCCCCCCCCCCNc1nc(NCCCCCCC)nc(NCCN2CCOCC2)n1` [Compound N7N12D2], in the assay with HEK293 cells [1], the “Absolute mRNA transfection efficiency” value is 0.0%. Further, in the assay on HEK293 cells [2], the “Absolute DNA transfection efficiency” value is listed as 0.0%.
As to `CCCCCCCCCCCCNc1nc(NCCCCCCC)nc(NCCN2CCCC2)n1` [Compound N7N12D3], in the assay on HEK293 cells [1], the “Absolute mRNA transfection efficiency” value came to 6.3%. In the assay with HEK293 cells [2], the “Absolute DNA transfection efficiency” value came out at 3.5%.
Turning to `CCCCCCCCCCCCNc1nc(NCCCCCCC)nc(NCCN2CCCCC2)n1` [Compound N7N12D4], in the assay with HEK293 cells [1], the “Absolute mRNA transfection efficiency” value came to 0.6%. In the assay with HEK293 cells [2], the “Absolute DNA transfection efficiency” value is 0.0%.
For `CCCCCCCCCCCCNc1nc(NCCCCCCC)nc(NCCN2CCN(C)CC2)n1` [Compound N7N12D5], in that order: 0.0% and 0.3%.
Regarding `CCCCCCCCCCCCNc1nc(NCCCCCCC)nc(NCCCN(C)C)n1` [Compound N7N12D6], the “Absolute mRNA transfection efficiency” value in the assay with HEK293 cells [1] is 0.2%. For the same compound, the “Absolute DNA transfection efficiency” value in the assay with HEK293 cells [2] is 0.4%.
For `CCCCCCCCCCCCNc1nc(NCCCCCCC)nc(NCCN(CC)CC)n1` [Compound N7N12D7] the same measures were 0.0% and 0.0%.
As for `CCCCCCCCCCCCNc1nc(NCCCCCCC)nc(NCCCN2CCOCC2)n1` [Compound N7N12D8], the “Absolute mRNA transfection efficiency” value with HEK293 cells [1] is given as 0.0%. Moreover, the “Absolute DNA transfection efficiency” value in the assay on HEK293 cells [2] was 0.1%.
For the compound `CCCCCCCCCCCCNc1nc(NCCCCCCC)nc(NCCCN2CCN(C)CC2)n1` [Compound N7N12D9], the “Absolute mRNA transfection efficiency” value in the assay on HEK293 cells [1] is listed as 0.0%. For the same compound, the “Absolute DNA transfection efficiency” value with HEK293 cells [2] is recorded as 0.1%.
Consider `CCCCCCCCCCCCNc1nc(NCCCCCCC)nc(NCC2CCN(C)CC2)n1` [Compound N7N12D10], for which, in the assay on HEK293 cells [1], the “Absolute mRNA transfection efficiency” value is recorded as 0.8%. Moreover, in the assay on HEK293 cells [2], the “Absolute DNA transfection efficiency” value turned out to be 1.4%.
For `CCCCCCCCCCCCCNc1nc(NCCCCCCC)nc(NCCN(C)C)n1` [Compound N7N13D1], in that order: 0.4% and 1.0%.
